According to paper PMC6278935 (Pharmacogenetics and genomics, 2012):
Substitutions are numbered along the chain they refer to. Names and notes keep the numbering of the source. Values joined by “and” are separate entries in the source; they are usually repeats but may differ in a detail not shown here. Equal values may be shown once. “Also recorded” adds a separate entry of the source. Marks after values point to notes of the source that are not given here.

Tests used:
UGT1A3 = UGT1A3 (Homo sapiens, UniProt P35503); experiment: Glucuronidation screen, UGT1A3-over-expressing cell homogenate; format: in vitro ADME; conditions: 160 μM CLZ or 320 μM dmCLZ; up to 1 mg cell homogenate; UV and MRM detection
Sequence of UGT1A3 (P35503 29-534): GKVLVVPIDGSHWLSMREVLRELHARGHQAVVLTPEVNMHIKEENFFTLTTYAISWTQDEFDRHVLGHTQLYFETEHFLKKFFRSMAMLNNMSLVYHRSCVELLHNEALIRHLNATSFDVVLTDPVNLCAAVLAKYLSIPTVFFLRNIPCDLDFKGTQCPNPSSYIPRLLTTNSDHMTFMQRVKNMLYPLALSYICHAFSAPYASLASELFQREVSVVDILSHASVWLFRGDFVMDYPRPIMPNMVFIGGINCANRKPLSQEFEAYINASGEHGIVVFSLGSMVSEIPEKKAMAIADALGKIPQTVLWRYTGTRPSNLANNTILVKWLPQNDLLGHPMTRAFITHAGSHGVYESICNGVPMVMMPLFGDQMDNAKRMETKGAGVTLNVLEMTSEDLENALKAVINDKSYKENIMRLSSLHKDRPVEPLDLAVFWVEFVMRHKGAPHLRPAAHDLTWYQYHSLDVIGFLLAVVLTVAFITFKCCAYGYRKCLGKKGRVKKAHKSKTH

UGT2B10 = UGT2B10 (Homo sapiens, UniProt P36537); experiment: Glucuronidation screen, UGT2B10-over-expressing cell homogenate; format: in vitro ADME; conditions: 160 μM CLZ or 320 μM dmCLZ; up to 1 mg cell homogenate; UV and MRM detection
Sequence of UGT2B10 (P36537 24-528): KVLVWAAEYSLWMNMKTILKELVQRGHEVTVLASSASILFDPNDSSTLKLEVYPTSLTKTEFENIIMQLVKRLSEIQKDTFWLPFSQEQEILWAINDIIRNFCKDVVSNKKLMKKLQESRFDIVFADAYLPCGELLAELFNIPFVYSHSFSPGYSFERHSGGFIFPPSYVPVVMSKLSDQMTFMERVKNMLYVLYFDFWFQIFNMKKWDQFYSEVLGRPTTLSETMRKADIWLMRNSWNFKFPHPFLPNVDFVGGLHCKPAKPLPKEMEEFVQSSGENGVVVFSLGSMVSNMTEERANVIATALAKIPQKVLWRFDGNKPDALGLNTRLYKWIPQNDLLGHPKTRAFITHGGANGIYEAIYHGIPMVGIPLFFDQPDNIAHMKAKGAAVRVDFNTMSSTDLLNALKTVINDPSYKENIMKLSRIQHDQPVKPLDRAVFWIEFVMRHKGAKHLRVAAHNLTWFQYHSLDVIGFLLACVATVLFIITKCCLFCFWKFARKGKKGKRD

UGT1A6 = UGT1A6 (Homo sapiens, UniProt P19224); experiment: Glucuronidation screen, UGT1A6-over-expressing cell homogenate; format: in vitro ADME; conditions: 160 μM CLZ or 320 μM dmCLZ; up to 1 mg cell homogenate
Sequence of UGT1A6 (P19224 27-532): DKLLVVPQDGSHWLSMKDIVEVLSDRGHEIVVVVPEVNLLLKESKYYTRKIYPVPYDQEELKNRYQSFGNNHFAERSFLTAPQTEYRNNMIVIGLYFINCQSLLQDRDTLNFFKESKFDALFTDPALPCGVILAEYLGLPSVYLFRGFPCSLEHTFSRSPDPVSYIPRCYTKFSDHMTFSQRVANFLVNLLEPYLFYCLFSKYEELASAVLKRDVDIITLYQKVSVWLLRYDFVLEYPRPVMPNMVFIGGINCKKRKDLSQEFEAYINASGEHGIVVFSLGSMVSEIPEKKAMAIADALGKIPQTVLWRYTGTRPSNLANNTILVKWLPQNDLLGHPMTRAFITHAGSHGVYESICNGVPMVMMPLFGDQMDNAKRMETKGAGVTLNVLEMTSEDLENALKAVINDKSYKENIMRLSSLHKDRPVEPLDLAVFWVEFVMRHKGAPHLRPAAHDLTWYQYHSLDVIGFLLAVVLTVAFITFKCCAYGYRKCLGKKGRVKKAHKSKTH

UGT1A7 = UGT1A7 (Homo sapiens, UniProt Q9HAW7); experiment: Glucuronidation screen, UGT1A7-over-expressing cell homogenate; format: in vitro ADME; conditions: 160 μM CLZ or 320 μM dmCLZ; up to 1 mg cell homogenate
Sequence of UGT1A7 (Q9HAW7 26-530): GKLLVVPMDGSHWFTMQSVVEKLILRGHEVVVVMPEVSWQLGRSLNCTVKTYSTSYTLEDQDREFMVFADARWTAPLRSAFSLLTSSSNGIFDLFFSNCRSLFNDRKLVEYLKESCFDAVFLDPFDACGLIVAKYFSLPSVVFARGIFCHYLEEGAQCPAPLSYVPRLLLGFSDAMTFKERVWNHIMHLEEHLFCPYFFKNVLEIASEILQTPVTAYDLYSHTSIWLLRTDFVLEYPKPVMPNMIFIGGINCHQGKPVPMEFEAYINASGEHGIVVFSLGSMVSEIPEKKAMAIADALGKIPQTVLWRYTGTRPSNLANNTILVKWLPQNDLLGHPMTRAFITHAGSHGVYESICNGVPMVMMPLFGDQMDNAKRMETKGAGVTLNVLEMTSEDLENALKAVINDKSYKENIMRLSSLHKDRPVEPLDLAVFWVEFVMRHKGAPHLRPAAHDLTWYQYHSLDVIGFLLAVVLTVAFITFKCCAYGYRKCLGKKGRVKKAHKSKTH

UGT1A8 = UGT1A8 (Homo sapiens, UniProt Q9HAW9); experiment: Glucuronidation screen, UGT1A8-over-expressing cell homogenate; format: in vitro ADME; conditions: 160 μM CLZ or 320 μM dmCLZ; up to 1 mg cell homogenate
Sequence of UGT1A8 (Q9HAW9 26-530): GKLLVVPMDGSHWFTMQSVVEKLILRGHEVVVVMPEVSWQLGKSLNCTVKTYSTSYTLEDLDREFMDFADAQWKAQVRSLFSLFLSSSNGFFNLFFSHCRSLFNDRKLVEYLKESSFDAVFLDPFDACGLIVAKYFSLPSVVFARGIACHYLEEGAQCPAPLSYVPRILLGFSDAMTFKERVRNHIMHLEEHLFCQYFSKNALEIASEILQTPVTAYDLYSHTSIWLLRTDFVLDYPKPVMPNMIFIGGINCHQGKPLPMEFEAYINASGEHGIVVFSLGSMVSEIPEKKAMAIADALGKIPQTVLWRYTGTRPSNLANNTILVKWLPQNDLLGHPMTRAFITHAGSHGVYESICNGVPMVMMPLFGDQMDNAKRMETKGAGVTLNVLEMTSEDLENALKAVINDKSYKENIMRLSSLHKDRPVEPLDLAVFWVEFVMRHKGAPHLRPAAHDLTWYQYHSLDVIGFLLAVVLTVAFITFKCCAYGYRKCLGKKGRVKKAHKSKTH

UGT1A9 = UGT1A9 (Homo sapiens, UniProt O60656); experiment: Glucuronidation screen, UGT1A9-over-expressing cell homogenate; format: in vitro ADME; conditions: 160 μM CLZ or 320 μM dmCLZ; up to 1 mg cell homogenate
UGT1A10 = UGT1A10 (Homo sapiens, UniProt Q9HAW8); experiment: Glucuronidation screen, UGT1A10-over-expressing cell homogenate; format: in vitro ADME; conditions: 160 μM CLZ or 320 μM dmCLZ; up to 1 mg cell homogenate
Sequence of UGT1A10 (Q9HAW8 26-530): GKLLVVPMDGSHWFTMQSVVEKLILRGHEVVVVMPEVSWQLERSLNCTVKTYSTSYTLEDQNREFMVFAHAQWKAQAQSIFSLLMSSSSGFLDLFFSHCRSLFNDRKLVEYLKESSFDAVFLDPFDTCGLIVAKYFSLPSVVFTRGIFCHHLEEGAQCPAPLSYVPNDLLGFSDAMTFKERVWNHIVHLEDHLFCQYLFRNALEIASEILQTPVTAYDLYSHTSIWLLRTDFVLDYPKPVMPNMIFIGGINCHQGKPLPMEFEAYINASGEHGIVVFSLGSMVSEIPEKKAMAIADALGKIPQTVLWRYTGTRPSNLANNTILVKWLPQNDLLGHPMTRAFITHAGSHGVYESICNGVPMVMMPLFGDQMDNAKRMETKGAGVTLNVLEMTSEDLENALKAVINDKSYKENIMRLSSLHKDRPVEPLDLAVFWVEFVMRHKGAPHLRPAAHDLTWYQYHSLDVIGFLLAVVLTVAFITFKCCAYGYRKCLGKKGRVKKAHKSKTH

UGT2B4 = UGT2B4 (Homo sapiens, UniProt P06133); experiment: Glucuronidation screen, UGT2B4-over-expressing cell homogenate; format: in vitro ADME; conditions: 160 μM CLZ or 320 μM dmCLZ; up to 1 mg cell homogenate
Sequence of UGT2B4 (P06133 24-528): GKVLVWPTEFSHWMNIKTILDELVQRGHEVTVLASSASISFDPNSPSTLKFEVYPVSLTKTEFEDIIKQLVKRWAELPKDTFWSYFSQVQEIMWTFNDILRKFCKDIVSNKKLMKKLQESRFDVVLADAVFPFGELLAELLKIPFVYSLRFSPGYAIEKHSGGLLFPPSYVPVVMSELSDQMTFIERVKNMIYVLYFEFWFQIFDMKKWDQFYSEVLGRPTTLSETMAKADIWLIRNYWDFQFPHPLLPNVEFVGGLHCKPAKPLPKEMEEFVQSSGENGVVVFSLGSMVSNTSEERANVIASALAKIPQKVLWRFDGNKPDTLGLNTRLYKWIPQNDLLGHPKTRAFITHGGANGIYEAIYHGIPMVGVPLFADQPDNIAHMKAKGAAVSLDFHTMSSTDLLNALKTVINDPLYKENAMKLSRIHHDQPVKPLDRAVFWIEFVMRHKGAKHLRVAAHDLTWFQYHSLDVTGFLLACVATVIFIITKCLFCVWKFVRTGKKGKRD

UGT2B7 = UGT2B7 (Homo sapiens, UniProt P16662); experiment: Glucuronidation screen, UGT2B7-over-expressing cell homogenate; format: in vitro ADME; conditions: 160 μM CLZ or 320 μM dmCLZ; up to 1 mg cell homogenate
UGT2B11 = UGT2B11 (Homo sapiens, UniProt O75310); experiment: Glucuronidation screen, UGT2B11-over-expressing cell homogenate; format: in vitro ADME; conditions: 160 μM CLZ or 320 μM dmCLZ; up to 1 mg cell homogenate
Sequence of UGT2B11 (O75310 22-529): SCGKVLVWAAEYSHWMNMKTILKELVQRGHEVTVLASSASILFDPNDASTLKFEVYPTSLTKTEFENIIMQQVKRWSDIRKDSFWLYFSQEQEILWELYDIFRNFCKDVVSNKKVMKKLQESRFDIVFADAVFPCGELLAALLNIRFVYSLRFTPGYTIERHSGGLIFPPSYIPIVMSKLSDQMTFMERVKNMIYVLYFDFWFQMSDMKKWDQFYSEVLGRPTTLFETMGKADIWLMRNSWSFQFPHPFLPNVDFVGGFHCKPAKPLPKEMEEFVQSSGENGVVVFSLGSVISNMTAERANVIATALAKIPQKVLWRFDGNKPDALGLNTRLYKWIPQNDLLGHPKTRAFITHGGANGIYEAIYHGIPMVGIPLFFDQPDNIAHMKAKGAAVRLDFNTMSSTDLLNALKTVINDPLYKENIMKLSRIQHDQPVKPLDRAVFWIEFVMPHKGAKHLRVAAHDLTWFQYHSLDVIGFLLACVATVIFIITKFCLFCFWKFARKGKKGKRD

UGT2B15 = UGT2B15 (Homo sapiens, UniProt P54855); experiment: Glucuronidation screen, UGT2B15-over-expressing cell homogenate; format: in vitro ADME; conditions: 160 μM CLZ or 320 μM dmCLZ; up to 1 mg cell homogenate
UGT2B17 = UGT2B17 (Homo sapiens, UniProt O75795); experiment: Glucuronidation screen, UGT2B17-over-expressing cell homogenate; format: in vitro ADME; conditions: 160 μM CLZ or 320 μM dmCLZ; up to 1 mg cell homogenate
Sequence of UGT2B17 (O75795 24-530): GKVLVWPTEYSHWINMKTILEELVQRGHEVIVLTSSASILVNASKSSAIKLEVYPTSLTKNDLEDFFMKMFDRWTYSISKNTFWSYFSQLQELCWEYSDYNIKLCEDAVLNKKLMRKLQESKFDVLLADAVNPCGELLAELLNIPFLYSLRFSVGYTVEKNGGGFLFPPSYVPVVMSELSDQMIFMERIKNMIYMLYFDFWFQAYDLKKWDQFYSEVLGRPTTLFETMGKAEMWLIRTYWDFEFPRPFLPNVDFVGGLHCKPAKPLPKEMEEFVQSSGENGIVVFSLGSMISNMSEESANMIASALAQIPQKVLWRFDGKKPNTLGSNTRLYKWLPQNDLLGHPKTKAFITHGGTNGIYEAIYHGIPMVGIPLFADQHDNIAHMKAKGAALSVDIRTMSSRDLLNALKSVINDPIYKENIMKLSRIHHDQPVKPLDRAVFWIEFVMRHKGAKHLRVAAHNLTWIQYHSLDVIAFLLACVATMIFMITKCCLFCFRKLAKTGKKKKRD

[1] = cited from earlier work
UGT1A1 = target: T1, UGT1A1 (Homo sapiens, UniProt P22309); experiment: Glucuronidation by UGT1A1-over-expressing HEK 293 cell homogenate; conditions: 160 μM CLZ or 320 μM dmCLZ; up to 1 mg cell homogenate; UV and MRM detection
T1 sequence (P22309 26-533): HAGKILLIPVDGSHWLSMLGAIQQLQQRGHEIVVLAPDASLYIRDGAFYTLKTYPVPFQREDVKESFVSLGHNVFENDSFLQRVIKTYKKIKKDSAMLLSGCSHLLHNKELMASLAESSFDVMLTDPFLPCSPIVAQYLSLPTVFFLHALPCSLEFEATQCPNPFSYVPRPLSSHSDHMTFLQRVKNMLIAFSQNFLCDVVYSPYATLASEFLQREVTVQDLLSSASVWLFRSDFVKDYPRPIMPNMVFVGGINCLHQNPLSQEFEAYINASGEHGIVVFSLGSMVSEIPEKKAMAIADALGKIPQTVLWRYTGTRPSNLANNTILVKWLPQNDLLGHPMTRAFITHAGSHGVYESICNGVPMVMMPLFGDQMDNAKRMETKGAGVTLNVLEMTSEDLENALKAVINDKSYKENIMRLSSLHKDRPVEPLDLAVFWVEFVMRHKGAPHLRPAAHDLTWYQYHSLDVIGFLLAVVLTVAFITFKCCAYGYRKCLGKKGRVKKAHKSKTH

UGT1A4^24Pro/48Leu = target: T2, UGT1A4^24Pro/48Leu (Homo sapiens, UniProt P22310); experiment: Glucuronidation by wild-type UGT1A4-over-expressing HEK 293 cell homogenate; conditions: 160 μM CLZ or 320 μM dmCLZ; up to 1 mg cell homogenate; UV and MRM detection
T2 sequence (P22310 29-534): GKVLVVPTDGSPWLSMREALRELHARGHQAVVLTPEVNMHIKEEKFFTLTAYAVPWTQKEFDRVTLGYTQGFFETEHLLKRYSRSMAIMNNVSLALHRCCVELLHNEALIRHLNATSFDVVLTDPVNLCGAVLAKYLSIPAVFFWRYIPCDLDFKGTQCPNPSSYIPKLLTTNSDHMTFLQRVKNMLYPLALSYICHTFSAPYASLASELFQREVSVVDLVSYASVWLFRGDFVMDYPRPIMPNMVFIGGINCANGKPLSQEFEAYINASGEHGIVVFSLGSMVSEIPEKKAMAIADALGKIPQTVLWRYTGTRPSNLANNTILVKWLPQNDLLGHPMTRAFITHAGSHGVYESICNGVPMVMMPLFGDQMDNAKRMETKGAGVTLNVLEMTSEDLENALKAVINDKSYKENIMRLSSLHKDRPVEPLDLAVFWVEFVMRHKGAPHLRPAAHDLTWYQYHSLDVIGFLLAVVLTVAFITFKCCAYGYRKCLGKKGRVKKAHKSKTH

UGT1A4^24Thr/48Leu = target: T3, UGT1A4^24Thr/48Leu (Homo sapiens, UniProt P22310); experiment: Glucuronidation by UGT1A4 24Thr/48Leu variant-over-expressing cell homogenate; conditions: vs wild-type UGT1A4^24Pro/48Leu
T3 sequence (P22310 29-534): T2 sequence (P22310 29-534)

UGT1A4^24Pro/48Val = target: T4, UGT1A4^24Pro/48Val (Homo sapiens, UniProt P22310, L48V); experiment: Glucuronidation by UGT1A4 24Pro/48Val variant-over-expressing cell homogenate
T4 sequence (P22310 29-534 L48V): T2 sequence (P22310 29-534) with L20V

UGT1A4 = target: T5, UGT1A4 (Homo sapiens, UniProt P22310); experiment: Inhibition of glucuronide formation in UGT1A4-over-expressing cell homogenates; format: biochemical; conditions: 10 μM hecogenin
T5 sequence (P22310 29-534): T2 sequence (P22310 29-534)

[2] = system: Human liver microsomes (HLM); format: biochemical; conditions: 10 μM hecogenin; 160 μM CLZ; HLM
[3] = substrate: CN1CCN(C2=Nc3cc(Cl)ccc3Nc3ccccc32)CC1; experiment: cells, lysate or membranes named; conditions: other: substrate CLZ
[4] = substrate: Clc1ccc2c(c1)N=C(N1CCNCC1)c1ccccc1N2; experiment: cells, lysate or membranes named; conditions: other: substrate dmCLZ

Molecule: CN1CCN(C2=Nc3cc(Cl)ccc3Nc3ccccc32)CC1 [CLZ, Clozapine, reference compound]
- detectable glucuronidation activity (screen) (UGT1A3): detectable levels of activity; also recorded: barely above the limits of detection
- detectable glucuronidation activity (screen) (UGT2B10): detectable levels of activity; also recorded: barely above the limits of detection
- detectable glucuronidation activity (screen) (UGT1A6): None
- detectable glucuronidation activity (screen) (UGT1A7): None
- detectable glucuronidation activity (screen) (UGT1A8): None
- detectable glucuronidation activity (screen) (UGT1A9): None
- detectable glucuronidation activity (screen) (UGT1A10): None
- detectable glucuronidation activity (screen) (UGT2B4): None
- detectable glucuronidation activity (screen) (UGT2B7): None
- detectable glucuronidation activity (screen) (UGT2B11): None
- detectable glucuronidation activity (screen) (UGT2B15): None
- detectable glucuronidation activity (screen) (UGT2B17): None
- administered dose being metabolized [1]: 97%
- patients who fail to respond to CLZ treatment despite adequate dosing [1]: Approximately 30%
- CLZ and dmCLZ glucuronides, share of all recovered metabolites in urine and bile ([1]; human subjects taking CLZ): 33–38%
- plasma concentrations (inter-individual variability for a given dose of CLZ) ([1]; patients): 3 to 1507 ng/mL
- detectable glucuronidation activity (screen) (UGT1A1): detectable levels of activity
- detectable glucuronidation activity (screen) (UGT1A4^24Pro/48Leu): detectable levels of activity
- decrease in Vmax, CLZ-5-N-glucuronide formation (UGT1A4^24Thr/48Leu): 21%
- lower Vmax/KM, CLZ-5-N-glucuronide formation (UGT1A4^24Thr/48Leu): 20%
- decrease in KM, CLZ-5-N-glucuronide formation (UGT1A4^24Pro/48Val; vs UGT1A4^24Thr/48Leu variant): 56%
- decrease in KM, CLZ-5-N-glucuronide formation (UGT1A4^24Pro/48Val; vs wild-type UGT1A4^24Pro/48Leu): 58%

Molecule: hecogenin
- inhibition of CLZ-5-N-glucuronide formation (UGT1A4; 160 μM CLZ): 77%
- inhibition of CLZ-N^+-glucuronide formation (UGT1A4; 160 μM CLZ): 82%
- inhibition of dmCLZ-5-N-glucuronide formation (UGT1A4; 320 μM dmCLZ): 81%
- inhibition of CLZ-5-N-glucuronide formation [2]: 89 ± 3%
- inhibition of CLZ-N^+-glucuronide formation [2]: 46 ± 5%

B1: UGT1A4^24Thr/48Leu (Homo sapiens) (protein)
chain: MARGLQVPLPRLATGLLLLLSVQPWAESGKVLVVPTDGSPWLSMREALRELHARGHQAVVLTPEVNMHIKEEKFFTLTAYAVPWTQKEFDRVTLGYTQGFFETEHLLKRYSRSMAIMNNVSLALHRCCVELLHNEALIRHLNATSFDVVLTDPVNLCGAVLAKYLSIPAVFFWRYIPCDLDFKGTQCPNPSSYIPKLLTTNSDHMTFLQRVKNMLYPLALSYICHTFSAPYASLASELFQREVSVVDLVSYASVWLFRGDFVMDYPRPIMPNMVFIGGINCANGKPLSQEFEAYINASGEHGIVVFSLGSMVSEIPEKKAMAIADALGKIPQTVLWRYTGTRPSNLANNTILVKWLPQNDLLGHPMTRAFITHAGSHGVYESICNGVPMVMMPLFGDQMDNAKRMETKGAGVTLNVLEMTSEDLENALKAVINDKSYKENIMRLSSLHKDRPVEPLDLAVFWVEFVMRHKGAPHLRPAAHDLTWYQYHSLDVIGFLLAVVLTVAFITFKCCAYGYRKCLGKKGRVKKAHKSKTH
- Km [3]: 167 ± 19^d μM and 459 ± 23^e μM
- Km [4]: 440 ± 45^b μM
- Vmax [4]: 0.0064 ± 0.0009 µmol/min/mg
- Vmax/Km [4]: 15 ± 1.5 µL/min/mg

B2: UGT1A1 (Homo sapiens) (protein)
chain: T1 sequence (P22309 26-533)
- Km [3]: 53 ± 2^a,b μM
- Vmax [3]: 0.00086 ± 2e-05 µmol/min/mg
- Vmax/Km [3]: 17 ± 0.6 µL/min/mg

B3: UGT1A4^24Pro/48Leu (Homo sapiens) (protein)
chain: T2 sequence (P22310 29-534)
- Km [4]: 379 ± 46 µM
- Vmax [4]: 0.01 µmol/min/mg
- Vmax/Km [4]: 28 µL/min/mg

B4: UGT1A4^24Pro/48Val (Homo sapiens; L48V) (protein)
chain: T2 sequence (P22310 29-534) with L20V
- Km [4]: 173 ± 22^e μM
- Vmax [4]: 0.017 ± 0.0013 µmol/min/mg
- Vmax/Km [4]: 96 ± 8 µL/min/mg
